Reference: patent US20220304955A1 (Nacuity Pharmaceuticals, Inc., priority 2021, published 2022)
Where a name gives a salt, the structure may show the parent alone. Positions of bridges follow the written chain, without caps; N, C: chain ends. Non-standard residues stand in square brackets, D forms with d. Residues, ends and D or L forms follow the SMILES beside them. *: point of attachment. Ileψ(thiazoline)Cys = CC[C@H](C)[C@H](N)C1=N[C@H](C(=O)*)CS1; dOrn = NCCC[C@@H](N)C(=O)O

Tests used:
N27 cells [1] = test: Cellular ferroptosis assay, cell viability by MTT; assay type: cell-based, rat; settings: for preventing ferroptosis, NAC compared with NACA: 50 μM in media or PBS, erastin 0.1-8 μM, RSL3 3-400 nM or glutamate 3-400 mM, 24 hr; for anti-ferroptotic activity on pretreatment prior to ferroptosis induction: 50 or 500 μM in PBS for 24 hours, then erastin, RSL3 or glutamate for additional 24 hours; for prevention of ferroptosis induced by erastin, RSL3 and glutamate (cell viability): erastin 2 μM, RSL3 100 nM or glutamate 100 mM, added at same time, liproxstatin-1 4-250 nM, NAC, NACA (in water), diNACA (in NMP) 8-500 μM; for anti-ferroptotic activity on post-treatment: erastin, RSL3 or glutamate for 5 hours, then 50 or 500 μM in PBS for additional 19 hours
Protocol: Materials and Methods. […] Cells were cultured at 37° C. with 5% CO2.

C. elegans [2] = test: Diethyl maleate (DEM) assay, survival of C. elegans; assay type: in vivo, Caenorhabditis elegans; settings: for % alive: then 10 mM DEM, scored at 24 hours
Protocol: Materials and Methods. Effects of NAC, NACA and diNACA on diethyl maleate (DEM; Sigma-Aldrich)-induced toxicity in C. elegans was evaluated. (10 mM DEM alone conjugates GSH causing 50% depletion of GSH and 50% lethality after 24 hour exposure (Jenkins et al., 2020)). DEM was added to neat DMSO and added to molten NGM at 55° C. to a final concentration of 10 mM DEM and 0.5% v/v DMSO. Plates were seeded with E. coli strain OP50. Data were collected at 25 (±1) ° C. using the temperature sensitive-sterile strain TJ1060. A synchronous population was obtained by transferring egg-laying adults to fresh plates at 16° C. for 2-3 hours. The adults were removed and the plates with eggs then transferred to 25° C. to ensure sterility. After 48 hours at 25° C., when worms were at the late L4/young adult stage, 70 nematodes were transferred to fresh plates containing either vehicle control, 1 mM NAC, 10 mM NAC, 1 mM NACA, 10 mM NACA, 1 mM diNACA, 10 mM diNACA (all with 1.0% v/v DMSO). Worms were aged at 25° C. for a further 4 days and then transferred to DEM plates, 35-45 per plate, two plates per treatment. Survival, determined by touch-provoked movement, was scored at 24 hours after exposure to DEM.

Caenorhabditis elegans = Caenorhabditis elegans Lifespan assay; assay type: in vivo; settings: for Median survival: from late L4 larval/young adult stage, 25 °C, strain TJ1060
Protocol: NAC and NACA were dissolved in sterile water then added to the molten NGM at 55° C. Media containing equivalent vehicle alone (1% v/v DMSO) was used for comparison. 1% v/v DMSO was also added to NAC and NACA plates for consistency, as DMSO itself may affect lifespan. Standard overnight culture of the Escherichia coli strain OP50 was used as the food source. Lifespan data were collected at 25 (±1) ° C. using the temperature sensitive-sterile strain TJ1060 [spe-9(hc88); rrf-3(b26)] as a proxy for wildtype. A developmentally synchronous population was obtained by transferring egg-laying adults to fresh plates at 16° C. for 4 hours. The adults were removed and the plates with eggs then transferred to 25° C. to ensure sterility. After 48 hours at 25° C., when worms were at the late L4 larval/young adult stage, 25-35 nematodes were transferred to fresh plates containing either vehicle control (1% v/v DMSO), 1 mM NAC, 10 mM NAC, 1 mM NACA, 10 mM NACA, 1 mM diNACA, and 10 mM diNACA. All plates were coded to allowing blinding of the experimenter to the treatment regime during scoring. Nematodes were scored for survival at 1 to 2-day intervals and transferred to freshly prepared plates as needed (every 2-4 days). Worms lost not due to death were recorded as censored.
Results. Data was analyzed using GraphPad Prism 9, with survival curves compared using a long-rank (Mantel-Cox) test. P values are given for pair-wise comparisons to the vehicle control population.

C. elegans [3] = settings: 10 mM DEM alone, 24 hour exposure; cited from earlier work
N27 cells [4] = settings: for solvent concentration over which cell viability is reduced: rat, 24 h
Protocol: Viability of cells treated with water, dimethyl sulfoxide (DMSO) or NMP (0.3-20% v/v) for 24 hours. Data are means±SEM, n=3.
Materials and Methods. […] N27 cells, derived from E12 rat mesencephalic tissue (Merck, Australia), were cultured in RPMI 1640 media (ThermoFisher Scientific) supplemented with 10% fetal calf serum (Bovogen, Australia) and penicillin and streptomycin (ThermoFisher Scientific, Australia). Cells were cultured at 37° C. with 5% CO2. Cellular ferroptosis assays were used to evaluate anti-ferroptotic activity of test articles (Southon et al., 2019). Liproxstatin-1 (lip1) was used as an anti-ferroptotic control. […] Cell viability was measured by 3-[4,5-dimethylthiazol-2-yl]-2,5-diphenyltetrazolium bromide (MTT) assay, absorbance measured at 570 nm using a PowerWave XS microplate spectrophotometer (BioTek Instruments, Winooski, USA), and expressed as a percentage of control cells (Southon et al., 2019).
The toxicity profile of solvents NMP, DMSO and water were evaluated in N27 cells (FIG. 2).

C. elegans [5] = settings: Drug Age Database listing; cited from earlier work
[6] = humans, oral dose of 600 mg; cited from earlier work
[7] = Bioavailability after oral administration in rat (plasma levels); assay type: in vivo
Protocol: Materials and Methods. Bioavailability of diNACA after oral administration in rat was evaluated. NACA and diNACA, separately, were suspended in phosphate-buffered saline (pH 7) and dosed to rats by oral gavage. Blood specimens were collected and processed to produce plasma. Plasma specimens were analyzed for NAC, NACA and diNACA concentration.
The thiol moiety of NAC, NACA, or diNACA and their respective internal standards oxidizes quickly in plasma through formation of disulfides. In order to determine total NAC and total NACA levels in plasma, tris(2-carboxyethyl)phosphine (TCEP) is added during the extraction to reduce disulfide bonds. Ammonium bicarbonate is added to control sample pH near neutral, as TCEP will otherwise acidify the aliquoted samples and hinder derivatization. The free analyte is then derivatized to a stable thioether using 2-chloro-1-methylpyridinium iodide (CMPI). […]
Thioether derivatives of NAC and NACA for LCMS analyses. Samples were analyzed on a Waters Acquity liquid chromatograph interfaced with a Thermo Scientific TSQ Vantage triple quadrupole mass spectrometer with ESI ionization. […]

[8] = Solubility of diNACA in solvents; assay type: physicochemical

With `CC(=O)N[C@@H](CS)C(N)=O` the “preventing ferroptosis, NAC compared with NACA” value (N27 cells [1]) was “similarly effective at preventing ferroptosis”, the “anti-ferroptotic activity on pretreatment prior to ferroptosis induction” value (N27 cells [1]) was “did not differentiate anti-ferroptotic activity” and the “prevention of ferroptosis induced by erastin, RSL3 and glutamate (cell viability)” value (“prevention of ferroptosis induced” below) (N27 cells [1]; 24 hours) was “efficacy in the micromolar range”. The “anti-ferroptotic activity on post-treatment” value (N27 cells [1]) was “did not differentiate anti-ferroptotic activity”, the “rescue from DEM-induced toxicity” value (C. elegans [2]; 1 mM) was “rescue” and the “% alive” value (C. elegans [2]; 1 mM pre-treatment 4 days) was 91%. The “rescue from DEM-induced toxicity” value (C. elegans [2]; 10 mM) was “rescue”, the “% alive” value (C. elegans [2]; 10 mM pre-treatment 4 days) was 98% and the increase in lifespan (Caenorhabditis elegans; 1 mM) was “minor increase”. The “Median survival” value (Caenorhabditis elegans; 1 mM in NGM) was 10 days, the increase in lifespan (Caenorhabditis elegans; 10 mM) was “marked increase in lifespan” and the “Median survival” value (Caenorhabditis elegans; 10 mM in NGM) was 16 days.
For `CCOC(=O)/C=C\C(=O)OCC` [DEM, diethyl maleate], the “depletion of GSH” value (C. elegans [3]) is given as 50% and the lethality (C. elegans [3]) is given as 50%.
With `C[S+](C)[O-]` [DMSO, dimethyl sulfoxide] the “solvent concentration over which cell viability is reduced” value (N27 cells [4]) was “over 1.3%”.
For `Clc1cccc(CN=C2Nc3ccccc3NC23CCNCC3)c1` [Lip1, Liproxstatin-1, reference compound], the “prevention of ferroptosis induced” value (N27 cells [1]; 24 hours) was “nanomolar efficacy”.
In the case of `CC(=O)N[C@@H](CS)C(=O)O` [NAC, N-acetylcysteine, reference compound], the “life extension of C. elegans” value (C. elegans [5]) is listed as 64%, the plasma half-life [6] is listed as 2.5 h and the “time after administration at which no NAC is detectable” value [6] is listed as 10 to 12 h. For the same compound, the “preventing ferroptosis, NAC compared with NACA” value (N27 cells [1]) was “similarly effective at preventing ferroptosis”, the “anti-ferroptotic activity on pretreatment prior to ferroptosis induction” value (N27 cells [1]) was “did not differentiate anti-ferroptotic activity” and the “prevention of ferroptosis induced” value (N27 cells [1]; 24 hours) was “efficacy in the micromolar range”. For the same compound, the “anti-ferroptotic activity on post-treatment” value (N27 cells [1]) was “did not differentiate anti-ferroptotic activity”, the “% alive” value (C. elegans [2]; 1 mM pre-treatment 4 days) was 80% and the “rescue from DEM-induced toxicity” value (C. elegans [2]; 10 mM) was “rescue”. The “% alive” value (C. elegans [2]; 10 mM pre-treatment 4 days) was 89%, the “Median survival” value (Caenorhabditis elegans; 1 mM in NGM) was 10 days and the increase in lifespan (Caenorhabditis elegans; 10 mM) was “minor increase”. The “Median survival” value (Caenorhabditis elegans; 10 mM in NGM) was 10 days.
For `CN1CCCC1=O` [NMP, N-methyl pyrrolidone], the “solvent concentration over which cell viability is reduced” value (N27 cells [4]) was “over 0.3%”.
With `O` [Water, water] the “effect of solvent on cell viability” value (N27 cells [4]) was “did not reduce cell viability”.
In the case of `CC(=O)Nc1ccc(O)cc1` [acetaminophen], the “life extension of C. elegans” value (C. elegans [5]) is listed as 66%.
In the case of `CC[C@H](C)[C@H](N)C1=N[C@H](C(=O)N[C@@H](CC(C)C)C(=O)N[C@H](CCC(=O)O)C(=O)N[C@H](C(=O)N[C@H]2CCCCNC(=O)[C@H](CC(N)=O)NC(=O)[C@@H](CC(=O)O)NC(=O)[C@H](Cc3cnc[nH]3)NC(=O)[C@@H](Cc3ccccc3)NC(=O)[C@H]([C@@H](C)CC)NC(=O)[C@@H](CCCN)NC2=O)[C@@H](C)CC)CS1` [bacitracin] ({Ileψ(thiazoline)Cys}-L[dE]IK[dOrn]I[dF]H[dD]N; lactam 4-C), the “life extension of C. elegans” value (C. elegans [5]) is listed as 74%.
For `CC(=O)N[C@@H](CSSC[C@H](NC(C)=O)C(N)=O)C(N)=O` [diNACA, (2R,2R′)-3,3′-disulfanediyl bis(2-acetamidopropanamide)], the “metabolism, plasma levels of NACA and NAC” value ([7]; 200 mg/kg oral diNACA compared with oral NACA) was “metabolized to NACA and NAC to yield greater levels for longer periods of time compared to oral dosing with NACA”, the “absorption after oral administration” value ([7]; 200 mg/kg oral gavage, suspension in PBS pH 7) was “well absorbed” and the “anti-ferroptotic activity on pretreatment prior to ferroptosis induction” value (N27 cells [1]) was “did not differentiate anti-ferroptotic activity”. The “concentration at which a small effect on RSL3 toxicity is seen” value (N27 cells [1]; diNACA solubilized in media (2-75 mM), RSL3 100 nM, 24 hours) was 75 mM, the “concentration partially preventing erastin and glutamate-induced toxicity” value (N27 cells [1]; diNACA solubilized in media (2-75 mM), erastin 2 μM or glutamate 100 mM, 24 hours) was at least 5 mM and the “prevention of ferroptosis induced” value (N27 cells [1]; 24 hours) was “did not prevent ferroptosis”. The “anti-ferroptotic activity on post-treatment” value (N27 cells [1]) was “did not differentiate anti-ferroptotic activity”, the “rescue from DEM-induced toxicity” value (C. elegans [2]; 1 mM) was “rescue” and the “% alive” value (C. elegans [2]; 1 mM pre-treatment 4 days) was 95%. The “rescue from DEM-induced toxicity” value (C. elegans [2]; 10 mM) was “rescue”, the “% alive” value (C. elegans [2]; 10 mM pre-treatment 4 days) was 98% and the “solubility in water or DMSO” value ([8]; Nacuity data on file) was “not soluble in water or DMSO”. For the same compound, the “solubility in neat DMSO” value ([8]; suspension, dissolved upon addition to NGM) was “not fully soluble in DMSO”, the increase in lifespan (Caenorhabditis elegans; 1 mM) was “marked increase in lifespan” and the “Median survival” value (Caenorhabditis elegans; 1 mM in NGM) was 18 days. For the same compound, the increase in lifespan (Caenorhabditis elegans; 10 mM) was “marked increase in lifespan”, the “Median survival” value (Caenorhabditis elegans; 10 mM in NGM) was 18 days and the “lifespan of C. elegans relative to control” value (Caenorhabditis elegans; FIG. 8) was “more than doubled the lifespan”. For the same compound, the “percentage lifespan extension, increase in median lifespan” value (Caenorhabditis elegans; versus control) was 125%.
For `Cc1ccc2c(c1)sc(-c1ccc(N(C)C)cc1)[n+]2C.[Cl-]` [thioflavin T], the “life extension of C. elegans” value (C. elegans [5]) is given as 78%.
